What was measured:
human liver FBPase = molecular target: T1, human liver FBPase (Homo sapiens, UniProt P09467); assay: FBPase assay (malachite green phosphate release); format: biochemical; details: recombinant human liver FBPase, 50 μM fructose-1,6-bisphosphate, pH 7.2, 50 minutes at room temperature
T1 construct: host or cells: E. coli
T1 sequence (P09467 2-338 limits assumed): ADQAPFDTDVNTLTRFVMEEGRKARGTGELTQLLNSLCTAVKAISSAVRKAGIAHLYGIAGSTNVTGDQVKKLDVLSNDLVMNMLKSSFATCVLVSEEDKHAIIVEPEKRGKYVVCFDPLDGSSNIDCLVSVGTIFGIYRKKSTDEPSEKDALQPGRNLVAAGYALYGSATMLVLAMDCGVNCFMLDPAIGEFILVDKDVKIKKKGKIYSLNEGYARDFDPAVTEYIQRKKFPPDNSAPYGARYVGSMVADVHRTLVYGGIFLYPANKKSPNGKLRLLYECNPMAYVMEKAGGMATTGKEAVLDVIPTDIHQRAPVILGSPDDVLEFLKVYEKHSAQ
Description: The following tests were carried out for evaluating the inhibitory activity of the compounds of the present invention against human liver FBPase (Swissprot Data base reference PO9467, entry F16P_HUMAN).
Enzyme preparation: Human liver FBPase cDNA (NM_000507) was purchased from Origene Technologies, Inc, subcloned in a vector for expression in E. Coli., and sequenced. Recombinant human liver FBPase (hIFBPase) was purified according to the following protocol that uses heat denaturation similarly to that described by El-Maghrabi et. al. [El-Maghrabi, M. R. et al. “Isolation of a human liver fructose-1,6-bisphosphatase cDNA and expression of the protein in Escherichia coli.” J Biol Chem 268:9466-9472, 1993.]. […] Purity of the enzyme preparation was >90% as assessed by Mass spectrometry.
In vitro activity: Recombinant human liver FBPase (hIFBPase) activity was assayed through measuring the inorganic phosphate release that results from the hydrolysis of Fructose-1,6-bisphosphate by the enzyme. […] Anal. Biochem., 171:266-270, 1988], inorganic phosphate can be readily quantified by spectrophotometry at 620 nm after complexation with ammonium molybdate/malachite green reagent. […] Under these conditions, the assay was linear with time and able to detect FBPase inhibition after spectrophotometric read-out at 620 nm.

| IC50 (human liver FBPase) | melting point | SMILES |
| --- | --- | --- |
| 22 nM | – | Cc1cccc(S(=O)(=O)NC(=O)NCCCCCCNC(=O)NS(=O)(=O)c2cccc(C)c2)c1 [Example 8, N,N′-[hexane-1,6-diylbis(iminocarbonyl)]bis(3-methylbenzenesulfonamide)] |
| – | 165 to 167 °C | O=C(NCCSSCCNC(=O)NS(=O)(=O)c1cccc(Cl)c1)NS(=O)(=O)c1cccc(Cl)c1 [Example 3, N,N′-[dithiobis(ethane-2,1-diyliminocarbonyl)]bis(3-chlorobenzenesulfonamide)] |
| 17 nM | – | O=C(NCCCCCCNC(=O)NS(=O)(=O)c1cccc(Cl)c1)NS(=O)(=O)c1cccc(Cl)c1 [Example 1] |

Source: US7964633B2, “Sulfonamide derivatives” (Hoffmann-La Roche Inc., priority 2006, dated 2011)
